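Step 1: Grow cells in 96-well plates. Step 2: Expose to compound for 48 hours at 5 concentrations. Step 3: Interpolate endpoints linearly; if unreached, use highest concentration. TGI marks complete inhibition of growth.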
What was measured:
Assay in all cases: DTP human tumour cell line panel, 48 h
786-0 renal = tested on: 786-0 renal
A549 NSCLC = tested on: A549 NSCLC
ACHN renal = tested on: ACHN renal
CAKI-1 renal = tested on: CAKI-1 renal
CCRF-CEM leukemia = tested on: CCRF-CEM leukemia
COLO 205 colon = tested on: COLO 205 colon
DLD-1 colon = tested on: DLD-1 colon
DMS 114 small cell lung = tested on: DMS 114 small cell lung
DMS 273 small cell lung = tested on: DMS 273 small cell lung
EKVX NSCLC = tested on: EKVX NSCLC
HCC-2998 colon = tested on: HCC-2998 colon
HCT-15 colon = tested on: HCT-15 colon
HL-60(TB) leukemia = tested on: HL-60(TB) leukemia
HOP-18 NSCLC = tested on: HOP-18 NSCLC
HOP-62 NSCLC = tested on: HOP-62 NSCLC
HOP-92 NSCLC = tested on: HOP-92 NSCLC
HT29 colon = tested on: HT29 colon
IGROV1 ovarian = tested on: IGROV1 ovarian
K-562 leukemia = tested on: K-562 leukemia
KM20L2 colon = tested on: KM20L2 colon
LOX IMVI melanoma = tested on: LOX IMVI melanoma
LXFL 529 NSCLC = tested on: LXFL 529 NSCLC
M14 melanoma = tested on: M14 melanoma
M19-MEL melanoma = tested on: M19-MEL melanoma
MALME-3M melanoma = tested on: MALME-3M melanoma
MOLT-4 leukemia = tested on: MOLT-4 leukemia
NCI-H23 lung = tested on: NCI-H23 lung
NCI-H460 lung = tested on: NCI-H460 lung
OVCAR-3 ovarian = tested on: OVCAR-3 ovarian
OVCAR-4 ovarian = tested on: OVCAR-4 ovarian
OVCAR-8 ovarian = tested on: OVCAR-8 ovarian
RPMI-8226 leukemia = tested on: RPMI-8226 leukemia
RXF 393 renal = tested on: RXF 393 renal
SF-268 CNS = tested on: SF-268 CNS
SF-295 CNS = tested on: SF-295 CNS
SK-MEL-28 melanoma = tested on: SK-MEL-28 melanoma
SK-OV-3 ovarian = tested on: SK-OV-3 ovarian
SN12C renal = tested on: SN12C renal
SNB-19 CNS = tested on: SNB-19 CNS
SNB-75 CNS = tested on: SNB-75 CNS
SNB-78 CNS = tested on: SNB-78 CNS
SW-620 colon = tested on: SW-620 colon
TK-10 renal = tested on: TK-10 renal
U251 CNS = tested on: U251 CNS
UACC-62 melanoma = tested on: UACC-62 melanoma
UO-31 renal = tested on: UO-31 renal
XF 498 CNS = tested on: XF 498 CNS
A498 renal = tested on: A498 renal
HCT-116 colon = tested on: HCT-116 colon
KM12 colon = tested on: KM12 colon
NCI-H226 lung = tested on: NCI-H226 lung
NCI-H522 lung = tested on: NCI-H522 lung
SF-539 CNS = tested on: SF-539 CNS
SK-MEL-2 melanoma = tested on: SK-MEL-2 melanoma
SR leukemia = tested on: SR leukemia
UACC-257 melanoma = tested on: UACC-257 melanoma
BT-549 breast = tested on: BT-549 breast
DU-145 prostate = tested on: DU-145 prostate
HS 578T breast = tested on: HS 578T breast
MCF7 breast = tested on: MCF7 breast
MDA-MB-231 breast = tested on: MDA-MB-231 breast
MDA-N = tested on: MDA-N
OVCAR-5 ovarian = tested on: OVCAR-5 ovarian
PC-3 prostate = tested on: PC-3 prostate
RXF-631 renal = tested on: RXF-631 renal
SK-MEL-5 melanoma = tested on: SK-MEL-5 melanoma
T-47D breast = tested on: T-47D breast

## CCOC(=O)C1(Cc2ccc3ccccc3c2)CCCCC(=O)N1 (stereo unspecified)
786-0 renal
  TGI: > 100 µM
A549 NSCLC
  TGI: > 100 µM
ACHN renal
  TGI: > 100 µM
CAKI-1 renal
  TGI: > 100 µM
CCRF-CEM leukemia
  TGI: > 100 µM
COLO 205 colon
  TGI: > 100 µM
DLD-1 colon
  TGI: > 100 µM
DMS 114 small cell lung
  TGI: 72.9 µM
DMS 273 small cell lung
  TGI: 36.9 µM
EKVX NSCLC
  TGI: > 100 µM
HCC-2998 colon
  TGI: 66.6 µM
HCT-15 colon
  TGI: > 100 µM
HL-60(TB) leukemia
  TGI: 30.3 µM
HOP-18 NSCLC
  TGI: > 100 µM
HOP-62 NSCLC
  TGI: > 100 µM
HOP-92 NSCLC
  TGI: 59.2 µM
HT29 colon
  TGI: > 100 µM
IGROV1 ovarian
  TGI: > 100 µM
K-562 leukemia
  TGI: > 100 µM
KM20L2 colon
  TGI: > 100 µM
LOX IMVI melanoma
  TGI: > 100 µM
LXFL 529 NSCLC
  TGI: > 100 µM
M14 melanoma
  TGI: > 100 µM
M19-MEL melanoma
  TGI: > 100 µM
MALME-3M melanoma
  TGI: 86.5 µM
MOLT-4 leukemia
  TGI: > 100 µM
NCI-H23 lung
  TGI: > 100 µM
NCI-H460 lung
  TGI: > 100 µM
OVCAR-3 ovarian
  TGI: 92.5 µM
OVCAR-4 ovarian
  TGI: > 100 µM
OVCAR-8 ovarian
  TGI: > 100 µM
RPMI-8226 leukemia
  TGI: 58.2 µM
RXF 393 renal
  TGI: > 100 µM
SF-268 CNS
  TGI: > 100 µM
SF-295 CNS
  TGI: 35.2 µM
SK-MEL-28 melanoma
  TGI: > 100 µM
SK-OV-3 ovarian
  TGI: > 100 µM
SN12C renal
  TGI: > 100 µM
SNB-19 CNS
  TGI: > 100 µM
SNB-75 CNS
  TGI: 9.22 µM
SNB-78 CNS
  TGI: > 100 µM
SW-620 colon
  TGI: > 100 µM
TK-10 renal
  TGI: > 100 µM
U251 CNS
  TGI: > 100 µM
UACC-62 melanoma
  TGI: > 100 µM
UO-31 renal
  TGI: 82.2 µM
XF 498 CNS
  TGI: > 100 µM

## Nc1ccccc1C(=O)C(Br)C(Br)c1ccc2c(c1)OCO2 (stereo unspecified)
786-0 renal
  TGI: > 100 µM
A498 renal
  TGI: 60.7 µM
A549 NSCLC
  TGI: 57.3 µM
ACHN renal
  TGI: 51 µM
CCRF-CEM leukemia
  TGI: > 100 µM
COLO 205 colon
  TGI: 27.4 µM
DLD-1 colon
  TGI: > 100 µM
DMS 114 small cell lung
  TGI: 40.2 µM
DMS 273 small cell lung
  TGI: 34 µM
EKVX NSCLC
  TGI: 52 µM
HCC-2998 colon
  TGI: 42.5 µM
HCT-116 colon
  TGI: 31.1 µM
HCT-15 colon
  TGI: 48.1 µM
HL-60(TB) leukemia
  TGI: > 100 µM
HOP-18 NSCLC
  TGI: 44.4 µM
HOP-62 NSCLC
  TGI: 51 µM
HOP-92 NSCLC
  TGI: 39.5 µM
HT29 colon
  TGI: 34.4 µM
IGROV1 ovarian
  TGI: > 100 µM
K-562 leukemia
  TGI: > 100 µM
KM12 colon
  TGI: 33.8 µM
KM20L2 colon
  TGI: 31 µM
LOX IMVI melanoma
  TGI: 27.8 µM
LXFL 529 NSCLC
  TGI: 46 µM
M14 melanoma
  TGI: 41.3 µM
M19-MEL melanoma
  TGI: 39.6 µM
MALME-3M melanoma
  TGI: 39 µM
MOLT-4 leukemia
  TGI: > 100 µM
NCI-H226 lung
  TGI: 52.2 µM
NCI-H23 lung
  TGI: 47.4 µM
NCI-H460 lung
  TGI: 39.2 µM
NCI-H522 lung
  TGI: 48.1 µM
OVCAR-3 ovarian
  TGI: 36.1 µM
OVCAR-4 ovarian
  TGI: 59.8 µM
OVCAR-8 ovarian
  TGI: 91.5 µM
RPMI-8226 leukemia
  TGI: > 100 µM
RXF 393 renal
  TGI: 49.9 µM
SF-268 CNS
  TGI: 91.5 µM
SF-295 CNS
  TGI: > 100 µM
SF-539 CNS
  TGI: 33.8 µM
SK-MEL-2 melanoma
  TGI: 35.2 µM
SK-MEL-28 melanoma
  TGI: 70.4 µM
SK-OV-3 ovarian
  TGI: 84.4 µM
SN12C renal
  TGI: 72.5 µM
SNB-19 CNS
  TGI: 89 µM
SNB-75 CNS
  TGI: 60.9 µM
SNB-78 CNS
  TGI: 81 µM
SR leukemia
  TGI: > 100 µM
SW-620 colon
  TGI: > 100 µM
TK-10 renal
  TGI: 72.7 µM
U251 CNS
  TGI: 49.6 µM
UACC-257 melanoma
  TGI: 44.9 µM
UACC-62 melanoma
  TGI: 35.2 µM
UO-31 renal
  TGI: 45.1 µM
XF 498 CNS
  TGI: 34 µM

## COc1ccc2[nH]c(-c3ccc(O)cc3)cc(=O)c2c1
786-0 renal
  TGI: > 58.1 µM
A498 renal
  TGI: 0.725 µM
A549 NSCLC
  TGI: > 59.4 µM
ACHN renal
  TGI: > 100 µM
BT-549 breast
  TGI: > 100 µM
CCRF-CEM leukemia
  TGI: 21.9 µM
COLO 205 colon
  TGI: 6.25 µM
DLD-1 colon
  TGI: > 100 µM
DMS 114 small cell lung
  TGI: 1.49 µM
DMS 273 small cell lung
  TGI: 0.717 µM
DU-145 prostate
  TGI: > 100 µM
EKVX NSCLC
  TGI: > 31.2 µM
HCC-2998 colon
  TGI: 3.4 µM
HCT-116 colon
  TGI: 10.4 µM
HCT-15 colon
  TGI: 7.03 µM
HL-60(TB) leukemia
  TGI: 2.16 µM
HOP-18 NSCLC
  TGI: > 29.9 µM
HOP-62 NSCLC
  TGI: > 58.8 µM
HOP-92 NSCLC
  TGI: 43.9 µM
HS 578T breast
  TGI: > 100 µM
HT29 colon
  TGI: 8.69 µM
IGROV1 ovarian
  TGI: > 62.8 µM
K-562 leukemia
  TGI: > 48.3 µM
KM12 colon
  TGI: 7.09 µM
KM20L2 colon
  TGI: > 18.6 µM
LOX IMVI melanoma
  TGI: > 90 µM
LXFL 529 NSCLC
  TGI: > 100 µM
M14 melanoma
  TGI: 82.1 µM
M19-MEL melanoma
  TGI: > 86 µM
MALME-3M melanoma
  TGI: > 29.1 µM
MCF7 breast
  TGI: > 100 µM
MDA-MB-231 breast
  TGI: > 100 µM
MDA-N
  TGI: > 100 µM
MOLT-4 leukemia
  TGI: 79.4 µM
NCI-H226 lung
  TGI: 4.81 µM
NCI-H23 lung
  TGI: 6.38 µM
NCI-H460 lung
  TGI: 9.35 µM
NCI-H522 lung
  TGI: 1.35 µM
OVCAR-3 ovarian
  TGI: 13.1 µM
OVCAR-4 ovarian
  TGI: > 100 µM
OVCAR-5 ovarian
  TGI: > 82.8 µM
OVCAR-8 ovarian
  TGI: 13.1 µM
PC-3 prostate
  TGI: > 100 µM
RPMI-8226 leukemia
  TGI: 65.2 µM
RXF 393 renal
  TGI: 5.16 µM
RXF-631 renal
  TGI: > 100 µM
SF-268 CNS
  TGI: 20.6 µM
SF-295 CNS
  TGI: 6.71 µM
SF-539 CNS
  TGI: 4.32 µM
SK-MEL-28 melanoma
  TGI: > 100 µM
SK-MEL-5 melanoma
  TGI: 5.43 µM
SK-OV-3 ovarian
  TGI: 7.49 µM
SN12C renal
  TGI: 54.2 µM
SNB-19 CNS
  TGI: > 100 µM
SNB-75 CNS
  TGI: 1.7 µM
SNB-78 CNS
  TGI: > 100 µM
SW-620 colon
  TGI: > 100 µM
T-47D breast
  TGI: 79.6 µM
TK-10 renal
  TGI: > 89.7 µM
U251 CNS
  TGI: 9.29 µM
UACC-257 melanoma
  TGI: > 81.2 µM
UACC-62 melanoma
  TGI: 38.9 µM
UO-31 renal
  TGI: 98.2 µM
XF 498 CNS
  TGI: 13.7 µM
